Results as given in ChEMBL document CHEMBL4417633, “Inhibitory polypeptides specific to WNT inhibitors” (2017).
Where a SMILES comes first, the peptide text is derived from it.

Experiments:
[1] = molecular target: T1, Dickkopf-related protein 1 (Homo sapiens, UniProt O94907); test: Inhibition of biotin-labeled human recombinant DKK1 assessed as reduction in DKK1 interaction with LRP-6/Fc incubated overnight by chemiluminescence based Alpha-screen assay
T1 sequence (O94907 whole entry): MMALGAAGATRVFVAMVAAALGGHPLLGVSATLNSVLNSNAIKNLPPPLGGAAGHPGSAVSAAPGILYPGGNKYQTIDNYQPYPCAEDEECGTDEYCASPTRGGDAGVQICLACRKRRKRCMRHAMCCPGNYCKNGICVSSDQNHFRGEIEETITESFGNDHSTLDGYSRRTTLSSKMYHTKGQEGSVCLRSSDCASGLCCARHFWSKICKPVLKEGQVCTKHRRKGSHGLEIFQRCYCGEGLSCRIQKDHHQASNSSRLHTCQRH

[2] = molecular target: T2, Dickkopf WNT-signaling pathway inhibitor 1 (Rattus norvegicus, UniProt A6I0Z0); test: Inhibition of biotin-labeled rat recombinant DKK1 assessed as reduction in DKK1 interaction with LRP-6/Fc incubated overnight by chemiluminescence based Alpha-screen assay
T2 sequence (A6I0Z0 whole entry): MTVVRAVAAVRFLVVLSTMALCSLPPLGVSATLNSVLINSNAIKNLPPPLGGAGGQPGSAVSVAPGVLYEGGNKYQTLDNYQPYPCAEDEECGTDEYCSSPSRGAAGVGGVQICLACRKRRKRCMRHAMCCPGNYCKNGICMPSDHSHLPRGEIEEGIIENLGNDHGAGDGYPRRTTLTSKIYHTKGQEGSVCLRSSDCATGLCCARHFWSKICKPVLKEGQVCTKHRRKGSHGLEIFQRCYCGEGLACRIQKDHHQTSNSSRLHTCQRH

| SMILES | IC50 [1] [nM] | IC50 [2] [nM] |
| --- | --- | --- |
| CSCC[C@H](NC(=O)[C@H](CS)NC(=O)[C@H](CCC(N)=O)NC(=O)[C@H](Cc1ccccc1)NC(=O)[C@H](Cc1ccc(O)cc1)NC(=O)[C@H](CO)NC(=O)[C@H](C)NC(=O)[C@@H]1CCCN1C(=O)[C@@H](N)CS)C(=O)N[C@@H](CC(N)=O)C(=O)N[C@@H](Cc1cnc[nH]1)C(=O)N[C@@H](CC(N)=O)C(=O)N[C@@H](Cc1cnc[nH]1)C(=O)N[C@@H](CS)C(=O)N[C@@H](Cc1ccc(O)cc1)C(=O)N1CCC[C@H]1C(=O)N[C@@H](CCSC)C(=O)N[C@@H](CCC(=O)O)C(=O)N[C@@H](Cc1c[nH]c2ccccc12)C(=O)N[C@@H](CCCNC(=N)N)C(=O)N[C@@H](CS)C(=O)N[C@@H](CC(=O)O)C(=O)NCC(=O)N[C@@H](Cc1ccccc1)C(=O)N1CCC[C@H]1C(=O)N[C@@H](CC(=O)O)C(=O)N[C@@H](CS)C(=O)N[C@@H](CCC(=O)O)C(=O)N[C@@H](CC(=O)O)C(=O)NCC(=O)N[C@@H](CO)C(=O)N[C@@H](CC(=O)O)C(=O)N[C@@H](CCC(=O)O)C(=O)N[C@@H](CCCCN)C(=O)NCC(=O)N[C@@H](CS)C(=O)N1CCC[C@H]1C(=O)N[C@@H](Cc1ccc(O)cc1)C(=O)N[C@@H](CCCNC(=N)N)C(=O)N[C@H](C(=O)O)[C@@H](C)O (H-CPASYFQCMNHNHCYPMEWRCDGFPDCEDGSDEKGCPYRT-OH) | ≤ 1 | ≤ 1 |
| CC[C@H](C)[C@H](NC(=O)[C@H](CCC(=O)O)NC(=O)[C@H](CC(=O)O)NC(=O)[C@H](CO)NC(=O)CNC(=O)[C@H](CC(=O)O)NC(=O)[C@@H](NC(=O)[C@H](CS)NC(=O)[C@H](CC(=O)O)NC(=O)[C@H](Cc1cnc[nH]1)NC(=O)[C@H](Cc1ccccc1)NC(=O)CNC(=O)[C@H](CC(=O)O)NC(=O)[C@H](CS)NC(=O)[C@H](CCCNC(=N)N)NC(=O)[C@H](Cc1c[nH]c2ccccc12)NC(=O)[C@H](CCC(=O)O)NC(=O)[C@H](CCSC)NC(=O)[C@@H]1CCCN1C(=O)[C@H](Cc1ccc(O)cc1)NC(=O)[C@H](CS)NC(=O)[C@H](Cc1cnc[nH]1)NC(=O)[C@H](CC(N)=O)NC(=O)[C@H](Cc1cnc[nH]1)NC(=O)[C@H](Cc1cnc[nH]1)NC(=O)[C@H](CCCNC(=N)N)NC(=O)[C@H](CS)NC(=O)[C@H](CCC(N)=O)NC(=O)[C@H](Cc1ccccc1)NC(=O)[C@H](Cc1ccc(O)cc1)NC(=O)[C@H](CO)NC(=O)[C@H](C)NC(=O)[C@@H]1CCCN1C(=O)[C@@H](N)CS)C(C)C)C(=O)NCC(=O)N[C@@H](CS)C(=O)N1CCC[C@H]1C(=O)N[C@@H](Cc1ccc(O)cc1)C(=O)N[C@@H](CCCNC(=N)N)C(=O)N[C@H](C(=O)O)[C@@H](C)O (H-CPASYFQCRHHNHCYPMEWRCDGFHDCVDGSDEIGCPYRT-OH) | ≤ 1 | ≤ 1 |

Continued, values first:

| IC50 [1] [nM] | IC50 [2] [nM] | SMILES |
| --- | --- | --- |
| ≤ 1 | ≤ 1 | CSCC[C@H](NC(=O)[C@@H]1CCCN1C(=O)[C@H](Cc1ccc(O)cc1)NC(=O)[C@H](CS)NC(=O)[C@H](Cc1cnc[nH]1)NC(=O)[C@@H]1CCCN1C(=O)[C@H](Cc1cnc[nH]1)NC(=O)[C@H](CCCCN)NC(=O)[C@H](CC(C)C)NC(=O)[C@H](CS)NC(=O)[C@H](CCC(N)=O)NC(=O)[C@H](Cc1ccccc1)NC(=O)[C@H](Cc1ccc(O)cc1)NC(=O)[C@H](CO)NC(=O)[C@H](C)NC(=O)[C@@H]1CCCN1C(=O)[C@@H](N)CS)C(=O)N[C@@H](CCC(=O)O)C(=O)N[C@@H](Cc1c[nH]c2ccccc12)C(=O)N[C@@H](CCCNC(=N)N)C(=O)N[C@@H](CS)C(=O)N[C@@H](CC(=O)O)C(=O)NCC(=O)N[C@@H](Cc1ccccc1)C(=O)N[C@@H](CC(=O)O)C(=O)N[C@@H](CC(=O)O)C(=O)N[C@@H](CS)C(=O)N[C@@H](CCC(=O)O)C(=O)N[C@@H](CC(=O)O)C(=O)NCC(=O)N[C@@H](CO)C(=O)N[C@@H](CC(=O)O)C(=O)N[C@@H](CCC(=O)O)C(=O)N[C@H](C(=O)NCC(=O)N[C@@H](CS)C(=O)N1CCC[C@H]1C(=O)N[C@@H](Cc1ccc(O)cc1)C(=O)N[C@@H](CCCNC(=N)N)C(=O)N[C@H](C(=O)O)[C@@H](C)O)[C@@H](C)O (H-CPASYFQCLKHPHCYPMEWRCDGFDDCEDGSDETGCPYRT-OH) |
| ≤ 1 | ≤ 1 | CSCC[C@H](NC(=O)[C@@H]1CCCN1C(=O)[C@H](Cc1ccc(O)cc1)NC(=O)[C@H](CS)NC(=O)[C@H](Cc1cnc[nH]1)NC(=O)[C@H](CCCCN)NC(=O)[C@H](CC(N)=O)NC(=O)[C@H](Cc1cnc[nH]1)NC(=O)[C@H](CCCNC(=N)N)NC(=O)[C@H](CS)NC(=O)[C@H](CCC(N)=O)NC(=O)[C@H](Cc1ccccc1)NC(=O)[C@H](Cc1ccc(O)cc1)NC(=O)[C@H](CO)NC(=O)[C@H](C)NC(=O)[C@@H]1CCCN1C(=O)[C@@H](N)CS)C(=O)N[C@@H](CCC(=O)O)C(=O)N[C@@H](Cc1c[nH]c2ccccc12)C(=O)N[C@@H](CCCNC(=N)N)C(=O)N[C@@H](CS)C(=O)N[C@@H](CC(=O)O)C(=O)NCC(=O)N[C@@H](Cc1ccccc1)C(=O)N1CCC[C@H]1C(=O)N[C@@H](CC(=O)O)C(=O)N[C@@H](CS)C(=O)N[C@@H](CCC(=O)O)C(=O)N[C@@H](CC(=O)O)C(=O)NCC(=O)N[C@@H](CO)C(=O)N[C@@H](CC(=O)O)C(=O)N[C@@H](CCC(=O)O)C(=O)N[C@@H](CC(C)C)C(=O)N[C@@H](CO)C(=O)N[C@@H](CS)C(=O)N1CCC[C@H]1C(=O)N[C@@H](Cc1ccc(O)cc1)C(=O)N[C@@H](CCCNC(=N)N)C(=O)N[C@H](C(=O)O)[C@@H](C)O (H-CPASYFQCRHNKHCYPMEWRCDGFPDCEDGSDELSCPYRT-OH) |
| ≤ 1 | ≤ 1 | CSCC[C@H](NC(=O)[C@@H]1CCCN1C(=O)[C@H](Cc1ccc(O)cc1)NC(=O)[C@H](CS)NC(=O)[C@H](Cc1cnc[nH]1)NC(=O)[C@@H]1CCCN1C(=O)[C@H](Cc1cnc[nH]1)NC(=O)[C@H](CC(N)=O)NC(=O)[C@H](CCCNC(=N)N)NC(=O)[C@H](CS)NC(=O)[C@H](CCC(N)=O)NC(=O)[C@H](Cc1ccccc1)NC(=O)[C@H](Cc1ccc(O)cc1)NC(=O)[C@H](CO)NC(=O)[C@H](C)NC(=O)[C@@H]1CCCN1C(=O)[C@@H](N)CS)C(=O)N[C@@H](CCC(=O)O)C(=O)N[C@@H](Cc1c[nH]c2ccccc12)C(=O)N[C@@H](CCCNC(=N)N)C(=O)N[C@@H](CS)C(=O)N[C@@H](CC(=O)O)C(=O)NCC(=O)N[C@@H](Cc1ccccc1)C(=O)N1CCC[C@H]1C(=O)N[C@@H](CC(=O)O)C(=O)N[C@@H](CS)C(=O)N[C@H](C(=O)N[C@@H](CC(=O)O)C(=O)NCC(=O)N[C@@H](CO)C(=O)N[C@@H](CC(=O)O)C(=O)N[C@@H](CCC(=O)O)C(=O)N[C@@H](CCCCN)C(=O)NCC(=O)N[C@@H](CS)C(=O)N1CCC[C@H]1C(=O)N[C@@H](Cc1ccc(O)cc1)C(=O)N[C@@H](CCCNC(=N)N)C(=O)N[C@H](C(=O)O)[C@@H](C)O)C(C)C (H-CPASYFQCRNHPHCYPMEWRCDGFPDCVDGSDEKGCPYRT-OH) |
